Measurements taken from ChEMBL document CHEMBL4699477, “Tricyclic sulfones as potent, selective and efficacious RORγt inverse agonists - Exploring C6 and C8 SAR using late-stage functionalization” (Bioorg Med Chem Lett, 2020).
Converted amounts (≈) assume the structure as drawn.

Key:
[1] = Total AUC in BALB/c mouse at 2 mg/kg, iv; format: ADME, organism-based; design: route intravenous, time AUCmax, dose 2 mg/kg; details: in vivo
[2] = Metabolic stability in dog liver microsomes assessed as half life; format: ADME, Canis lupus familiaris, Microsome
[3] = Volume of distribution at steady state in dog at 1 mg/kg, iv; format: ADME, organism-based, Canis lupus familiaris; details: in vivo, read-out: Vdss
[4] = Oral bioavailability in BALB/c mouse at 4 mg/kg; format: ADME, organism-based; details: in vivo
[5] = molecular target: T1, Oxysterols receptor LXR-alpha (Homo sapiens, UniProt Q13133); assay: Inverse agonist activity of LXRalpha (unknown origin)
T1 sequence (Q13133 whole entry): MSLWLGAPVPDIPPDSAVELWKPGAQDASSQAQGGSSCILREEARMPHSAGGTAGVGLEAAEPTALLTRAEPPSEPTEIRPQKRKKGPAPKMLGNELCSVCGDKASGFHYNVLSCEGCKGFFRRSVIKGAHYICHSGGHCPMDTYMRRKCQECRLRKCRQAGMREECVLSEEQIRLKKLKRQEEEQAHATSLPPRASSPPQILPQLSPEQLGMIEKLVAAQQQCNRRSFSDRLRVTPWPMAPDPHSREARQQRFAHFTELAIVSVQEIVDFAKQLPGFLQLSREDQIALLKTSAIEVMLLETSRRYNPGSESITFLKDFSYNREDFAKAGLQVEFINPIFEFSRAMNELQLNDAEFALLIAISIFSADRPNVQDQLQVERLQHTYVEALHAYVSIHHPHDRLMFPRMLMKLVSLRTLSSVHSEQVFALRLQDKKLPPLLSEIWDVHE

[6] = Clearance in dog at 1 mg/kg, iv; format: ADME, organism-based, Canis lupus familiaris; details: in vivo
[7] = Half life in dog at 1 mg/kg, iv; format: ADME, organism-based, Canis lupus familiaris; details: in vivo
[8] = Total AUC in cynomolgus monkey at 1 mg/kg, iv; format: ADME, organism-based, Macaca fascicularis; design: time AUCmax, route intravenous, dose 1 mg/kg; details: in vivo
Cytochrome P450 3A4 = Cytochrome P450 3A4 (Homo sapiens, UniProt P08684); assay: Inhibition of recombinant CYP3A4 (unknown origin); format: ADME
[9] = Oral bioavailability in cynomolgus monkey at 2 mg/kg; format: ADME, organism-based, Macaca fascicularis; details: in vivo
[10] = molecular target: T2, Nuclear receptor ROR-beta (Homo sapiens, UniProt Q92753); assay: Inhibition of GAL4-fused RORbeta (unknown origin)
T2 sequence (Q92753 whole entry): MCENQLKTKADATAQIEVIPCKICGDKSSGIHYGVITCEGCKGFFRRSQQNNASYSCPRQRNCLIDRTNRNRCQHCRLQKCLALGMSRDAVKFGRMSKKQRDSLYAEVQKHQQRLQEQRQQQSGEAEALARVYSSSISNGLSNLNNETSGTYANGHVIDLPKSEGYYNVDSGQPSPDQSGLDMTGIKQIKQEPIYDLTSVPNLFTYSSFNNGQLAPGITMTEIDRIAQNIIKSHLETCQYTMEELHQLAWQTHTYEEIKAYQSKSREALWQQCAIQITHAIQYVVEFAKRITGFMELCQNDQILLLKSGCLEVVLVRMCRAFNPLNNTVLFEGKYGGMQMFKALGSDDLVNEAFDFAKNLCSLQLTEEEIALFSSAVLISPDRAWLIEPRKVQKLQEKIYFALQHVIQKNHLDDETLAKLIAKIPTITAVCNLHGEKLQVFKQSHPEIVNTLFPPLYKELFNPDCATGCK

Cytochrome P450 2C9 = Cytochrome P450 2C9 (Homo sapiens, UniProt P11712); assay: Inhibition of recombinant CYP2C9 (unknown origin); format: ADME
[11] = Total AUC in cynomolgus monkey at 2 mg/kg, po; format: ADME, organism-based, Macaca fascicularis; design: route oral, time AUCmax, dose 2 mg/kg; details: in vivo
Cytochrome P450 2D6 = Cytochrome P450 2D6 (Homo sapiens, UniProt P10635); assay: Inhibition of recombinant CYP2D6 (unknown origin); format: ADME
[12] = Solubility of compound at pH 6.5; format: physicochemical; details: buffer
[13] = Total AUC in rat at 4 mg/kg, po; format: ADME, organism-based; design: time AUCmax, route oral, dose 4 mg/kg; details: in vivo
[14] = Oral bioavailability in rat at 4 mg/kg; format: ADME, organism-based; details: in vivo
[15] = molecular target: T3, Nuclear receptor ROR-alpha (Homo sapiens, UniProt P35398); assay: Inhibition of GAL4-fused RORalpha (unknown origin)
T3 sequence (P35398 whole entry): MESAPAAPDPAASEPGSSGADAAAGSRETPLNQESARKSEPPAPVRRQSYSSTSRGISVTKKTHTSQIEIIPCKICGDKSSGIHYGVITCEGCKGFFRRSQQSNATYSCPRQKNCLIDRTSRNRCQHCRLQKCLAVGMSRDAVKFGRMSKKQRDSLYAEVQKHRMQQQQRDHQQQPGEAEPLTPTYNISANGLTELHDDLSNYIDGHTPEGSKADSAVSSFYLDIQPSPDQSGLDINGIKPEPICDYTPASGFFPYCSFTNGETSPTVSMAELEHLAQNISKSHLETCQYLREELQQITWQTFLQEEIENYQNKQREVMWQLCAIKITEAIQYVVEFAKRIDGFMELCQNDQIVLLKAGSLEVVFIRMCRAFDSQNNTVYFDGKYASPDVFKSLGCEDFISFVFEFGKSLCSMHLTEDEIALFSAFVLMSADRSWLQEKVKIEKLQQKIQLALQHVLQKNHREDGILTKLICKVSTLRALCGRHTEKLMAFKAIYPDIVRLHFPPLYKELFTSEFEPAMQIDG

[16] = Clearance in BALB/c mouse at 2 mg/kg, iv; format: ADME, organism-based; details: in vivo
[17] = Total AUC in rat at 2 mg/kg, iv; format: ADME, organism-based; design: time AUCmax, route intravenous, dose 2 mg/kg; details: in vivo
[18] = Volume of distribution at steady state in rat at 2 mg/kg, iv; format: ADME, organism-based; details: in vivo, read-out: Vdss
Cytochrome P450 2C8 = molecular target: T4, Cytochrome P450 2C8 (Homo sapiens, UniProt P10632); assay: Inhibition of recombinant CYP2C8 (unknown origin); format: ADME
T4 sequence (P10632 whole entry): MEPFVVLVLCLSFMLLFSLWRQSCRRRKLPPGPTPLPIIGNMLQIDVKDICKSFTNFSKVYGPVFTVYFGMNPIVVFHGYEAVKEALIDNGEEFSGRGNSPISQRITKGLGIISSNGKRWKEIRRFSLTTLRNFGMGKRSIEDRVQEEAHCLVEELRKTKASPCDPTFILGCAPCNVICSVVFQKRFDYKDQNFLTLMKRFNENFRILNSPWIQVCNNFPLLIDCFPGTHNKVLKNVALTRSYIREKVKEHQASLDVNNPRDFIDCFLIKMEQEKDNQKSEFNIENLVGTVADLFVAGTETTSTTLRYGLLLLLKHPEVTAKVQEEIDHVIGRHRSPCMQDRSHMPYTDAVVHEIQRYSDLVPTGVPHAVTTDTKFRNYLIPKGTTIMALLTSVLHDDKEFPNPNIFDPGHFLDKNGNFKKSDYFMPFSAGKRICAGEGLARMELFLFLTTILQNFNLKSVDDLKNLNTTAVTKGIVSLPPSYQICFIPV

Sequence of Cytochrome P450 2C9 (P11712 whole entry): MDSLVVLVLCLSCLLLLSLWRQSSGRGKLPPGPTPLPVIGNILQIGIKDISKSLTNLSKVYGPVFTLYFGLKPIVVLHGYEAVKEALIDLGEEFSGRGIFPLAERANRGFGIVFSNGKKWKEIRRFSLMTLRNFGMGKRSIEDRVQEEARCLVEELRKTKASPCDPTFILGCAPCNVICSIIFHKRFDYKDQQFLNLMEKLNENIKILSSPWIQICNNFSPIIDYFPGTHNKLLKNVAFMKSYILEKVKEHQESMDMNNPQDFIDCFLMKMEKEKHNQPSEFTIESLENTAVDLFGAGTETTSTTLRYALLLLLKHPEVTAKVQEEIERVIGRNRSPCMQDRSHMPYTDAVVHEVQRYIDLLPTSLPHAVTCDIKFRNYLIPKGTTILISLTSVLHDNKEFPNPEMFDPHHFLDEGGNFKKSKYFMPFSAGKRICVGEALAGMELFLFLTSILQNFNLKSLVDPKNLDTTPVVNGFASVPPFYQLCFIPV
Sequence of Cytochrome P450 3A4 (P08684 whole entry): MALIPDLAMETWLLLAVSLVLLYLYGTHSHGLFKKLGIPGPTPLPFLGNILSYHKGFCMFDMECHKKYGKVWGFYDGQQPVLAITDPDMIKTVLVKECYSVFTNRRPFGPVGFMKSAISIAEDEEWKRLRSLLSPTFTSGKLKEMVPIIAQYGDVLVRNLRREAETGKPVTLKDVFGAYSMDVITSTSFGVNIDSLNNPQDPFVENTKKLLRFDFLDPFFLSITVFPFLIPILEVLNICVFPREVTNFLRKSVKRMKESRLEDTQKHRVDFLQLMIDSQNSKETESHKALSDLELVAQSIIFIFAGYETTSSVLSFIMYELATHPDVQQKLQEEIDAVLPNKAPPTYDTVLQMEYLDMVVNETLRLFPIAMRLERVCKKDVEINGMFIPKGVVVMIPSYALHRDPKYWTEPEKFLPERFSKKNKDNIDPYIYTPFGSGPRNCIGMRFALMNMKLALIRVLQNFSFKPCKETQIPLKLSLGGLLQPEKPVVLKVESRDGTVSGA
Sequence of Cytochrome P450 2D6 (P10635 whole entry): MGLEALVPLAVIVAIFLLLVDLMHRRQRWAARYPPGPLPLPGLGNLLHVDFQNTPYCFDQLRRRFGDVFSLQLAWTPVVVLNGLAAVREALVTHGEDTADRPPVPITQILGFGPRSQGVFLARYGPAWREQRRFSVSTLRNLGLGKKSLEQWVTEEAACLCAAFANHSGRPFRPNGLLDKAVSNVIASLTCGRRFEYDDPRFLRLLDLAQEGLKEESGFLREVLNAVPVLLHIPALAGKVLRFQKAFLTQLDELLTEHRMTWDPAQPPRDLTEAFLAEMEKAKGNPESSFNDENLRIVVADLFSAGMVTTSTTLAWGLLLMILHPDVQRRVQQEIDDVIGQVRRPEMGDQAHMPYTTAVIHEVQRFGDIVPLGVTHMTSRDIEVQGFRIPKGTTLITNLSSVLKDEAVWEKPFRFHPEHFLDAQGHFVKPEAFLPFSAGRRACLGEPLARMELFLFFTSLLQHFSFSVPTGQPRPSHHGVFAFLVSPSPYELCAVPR

AUC [1]: 20 µM·h
half-life [2]: > 2 h
Vd [3]: 0.7 L/kg
bioavailability [4]: 98%
EC50 [5]: > 12 µM
clearance [6]: 0.3 mL/min/kg
half-life [7]: 28 h
AUC [8]: 23 µM·h
IC50 (Cytochrome P450 3A4): > 20 µM
bioavailability [9]: 100%
EC50 [10]: > 10 µM
IC50 (Cytochrome P450 2C9): > 20 µM
AUC [11]: 55 µM·h
IC50 (Cytochrome P450 2D6): > 20 µM
solubility [12]: 350 µg/mL (≈ 524 µM)
AUC [13]: 44 µM·h
bioavailability [14]: 100%
EC50 [15]: > 10 µM
clearance [16]: 2.5 mL/min/kg
AUC [17]: 20 µM·h
Vd [18]: 1.3 L/kg
IC50 (Cytochrome P450 2C8): 1.9 µM
Structure (SMILES): C[C@H]1C[C@H](C(=O)O)CC[C@H]1C(=O)N1CC[C@@]2(S(=O)(=O)c3ccccc3)c3cc(F)c(C(F)(C(F)(F)F)C(F)(F)F)cc3CC[C@@H]12
